Data set [1] is described as follows: Distribution coefficient, logD of compound. It is filed as physicochemical. As to conditions: octanol/water.
Data set [2] can be described thus: Oral bioavailability in rhesus monkey. The data set is classed as ADME, organism-based, Macaca mulatta. Particulars: in vivo.
The nature of data set [3]: Oral bioavailability in rat. The data set is classed as ADME, organism-based. Particulars: in vivo.
Data set [4] is described as follows: Solubility of the compound at pH 2. Particulars: buffer. The data set is classed as physicochemical.
Data set [5] can be described thus: Solubility of the compound at pH 7. It is filed as physicochemical. As to conditions: buffer.

Each structure is given as a SMILES string.

The term logD denotes lipophilicity at a set pH, counting ionised and neutral species. As usually defined, the bioavailability is the share of a dose that reaches the circulation, judged against a reference dose that is usually intravenous. What is called solubility is the concentration that dissolves in the medium under given conditions.

As for `NC(=O)c1cc(-c2ccc(F)cc2)c2ccc(CN3C(=O)CCC3=O)cc2n1`, the logD in data set [1] turned out to be 2.1. Moreover, the bioavailability in data set [2] and in data set [3] was above 99% each time.
Turning to `CC[C@@](O)(c1cn(Cc2ccc3c(-c4ccc(F)cc4)cc(C(N)=O)nc3c2)nn1)C(F)(F)F`, the solubility in data set [4] and in data set [5] was below 0.8 µM in each case.

(Values after ChEMBL document CHEMBL4619715 (Bioorg Med Chem Lett, 2020).)
